Assay results: publication PMC8773338, “Discovery Potent of Thiazolidinedione Derivatives as Antioxidant, α-Amylase Inhibitor, and Antidiabetic Agent” (Biomedicines, 2021)
pIC50: −log10 of the molar value. In brackets after ≈: the same amount, converted by molar mass.

Experiments:
α-amylase = biological target: T1, α-amylase (Homo sapiens, UniProt P04746); assay: in vitro inhibition of α-amylase assay; assay type: biochemical; details: six concentrations 5-40 µg/mL, non-linear regression
T1 sequence (P04746 16-511): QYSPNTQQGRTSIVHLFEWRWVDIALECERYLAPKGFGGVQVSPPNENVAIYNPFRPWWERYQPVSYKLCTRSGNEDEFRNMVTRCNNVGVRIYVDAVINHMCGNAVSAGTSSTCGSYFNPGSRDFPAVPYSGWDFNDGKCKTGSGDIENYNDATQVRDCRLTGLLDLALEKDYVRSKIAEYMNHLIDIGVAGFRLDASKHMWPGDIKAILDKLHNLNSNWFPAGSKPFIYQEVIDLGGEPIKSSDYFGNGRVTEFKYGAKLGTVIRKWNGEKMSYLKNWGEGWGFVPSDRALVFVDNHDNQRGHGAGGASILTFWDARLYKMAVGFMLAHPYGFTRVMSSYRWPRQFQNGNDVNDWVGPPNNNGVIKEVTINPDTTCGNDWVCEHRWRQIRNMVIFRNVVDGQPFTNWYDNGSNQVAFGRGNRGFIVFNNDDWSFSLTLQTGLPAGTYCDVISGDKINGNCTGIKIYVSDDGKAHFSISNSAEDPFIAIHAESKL
Source text: The α-amylase activity of the probe compounds determined using a method.
This study examined the inhibitory potential for the (3–6, 9, and 11) compounds against α-amylase enzyme. We applied six different concentrations (5,10,15,20,30, and 40) µg/mL for this test. These concentrations were plotted via the inhibition percentage to determine the IC50 (the concentration required to inhibit 50% of the enzyme) using the non-linear regression method.
- inhibition in-vitro of α-Amylase assay:
The α-amylase activity of the compounds were determined using a method in which 250 μL of each compound, or Metformin .HCl, dissolved in ethanol to obtain different concentrations (5, 10, 15, 20,30 and 40 μg/mL ), was mixed with 500 μL of α-amylase (2 U/mL ) in phosphate buffer (100 mM, pH 6.8) and incubated at 37 °C for 10 min. Thereafter, 50 μL of 1% starch, dissolved in the same buffer, was added to the mixture and the samples were incubated again at 37 °C. After 30 min, dinitrosalicylic acid (DNS) colour reagent (1 mL) was added. The (DNS) was prepared by adding 437mg of 3,5- dinitro salicylic acid in 20 mL distilled water to12 g of sodium potassium tartrate in 8 mL of 2 M NaOH, then added distilled water until the solution reach to 40 mL ). the samples were boiled for 10 min in water bath. For non-enzymatic reactions, the assays were performed with a blank containing all of the components except the enzyme. Each concentration was analyzed in three independent experiments run in triplicate.
The percent of inhibition Absorbance was then measured at 540 nm. The percent of inhibition of α-amylase was calculated as following by the formula below:
%inhibition= ((absorbance of blank_absorbance of compound)/absorbance of blank) *100. […]

[1] = system: alloxan-induced diabetic rat model; assay: blood glucose level in alloxan-induced diabetic rat model; assay type: in vivo; details: for reduction percentage of blood glucose level: 30-day treatment protocol, compared with the normal control
Protocol: Healthy male albino Wistar rats (150 ± 20 g) have been obtained as mentioned in Supplementary Materials.
The animals were kept fasting overnight (12 h) before induction of diabetes, which was induced in rats as reported and mentioned in Supplementary Materials.
We obtained the blood samples from the tail vein of all rats, the blood-glucose-level “BGLs” were measured and monitored in all treatment groups at days 0 (basal), 2th, 4th, 15th, and 30th as reported.
This study used an alloxan-induced diabetic rat model to test the anti-hyperglycemic action of substances (3–6, 9, 11). […] The BGL was monitored for each tested compound at three different doses (50, 100, and 250 μ/Kg) and for five experimental period durations (0, 2, 4, 15, 30 days). […]
The animals were kept fasting overnight (12 h) before induction of diabetes. […]
(§1) Data are expressed as mean ± S.E. Data analysis was done using one way analysis of variance (ANOVA) followed by least significant difference (LSD) test for multiple comparisons. Difference was considered significant when p is less than 0.05. SPSS (version 11) program was used to carry out these statistical tests.

[2] = system: alloxan-induced diabetic rat model; details: Wistar (albino), in vivo, 30 days
Source text: This study used an alloxan-induced diabetic rat model to test the anti-hyperglycemic action of substances (3–6, 9, 11). […] The BGL was monitored for each tested compound at three different doses (50, 100, and 250 μ/Kg) and for five experimental period durations (0, 2, 4, 15, 30 days).
At 50 μ/Kg, we observed no mortality during any of the experiment periods for all tested compounds.
Data analyzed by one way ANOVA followed by LSD test and expressed as mean ± SEM from five observations. TEXT PRINTED IN THE PICTURE: 3: Mortilaty: 20% (250 (m/Kg)); Mortilaty: 10% (100 (m/Kg)); Mortilaty: 0% (50 (m/Kg)) | 4: Mortilaty: 20% (250 (m/Kg)); Mortilaty: 10% (100 (m/Kg)); Mortilaty: 0% (50 (m/Kg)) | 5: Mortilaty: 30% (250 (m/Kg)); Mortilaty: 20% (100 (m/Kg)); Mortilaty: 0% (50 (m/Kg)) | 6: Mortilaty: 20% (250 (m/Kg)); Mortilaty: 10% (100 (m/Kg)); Mortilaty: 0% (50 (m/Kg)) | 9: Mortilaty: 20% (250 (m/Kg)); Mortilaty: 10% (100 (m/Kg)); Mortilaty: 0% (50 (m/Kg)) | 11: Mortilaty: 20% (250 (m/Kg)); Mortilaty: 10% (100 (m/Kg)); Mortilaty: 0% (50 (m/Kg)) DOUBTS OF THE COPYIST ABOUT THIS PICTURE: The control groups NO. (labels 0%, 0%, 0%, overlapping) and DC (labels 50%, 50% and a third that reads 50% or 60%, partly hidden) are not compounds and were left out. / 3, 4, 5, 6, 9, 11, Mortilaty at 50 (m/Kg): the 0% labels are partly overlapped by neighbouring bars and labels; 0% is the best reading. / Which label belongs to which dose series was judged from its position over the bars; several labels overlap.

[3] = system: alloxan-induced diabetic rat model; assay: serum lipid profile in alloxan-induced diabetic rats; assay type: in vivo; details: for CH level: versus normal animals; for serum CH level decrease: compared to the diabetic control group; for LDL value: versus normal value
Protocol: The blood samples (0.5 mL) were withdrawn from the retro-orbital plexus of each rat and the other steps adapted for measuring the biochemical analysis are shown in (Supplementary Materials).
A serious side effect related to diabetes is Hyperlipidemia. Insulin deficiency promotes the adipocytes to generate a fatty acid, hepatic phospholipids and cholesterol. Thus, we measured the levels of (cholesterol “CH”, triglyceride “TG”, high, low and very-low- and high/low and very low density lipoproteins “HDL, LDL and VLDL”) in serum for alloxan-loaded diabetes. […] The serum CH. Level decreased by 40%, 32%, 40%, 48%, 52%, and 43% for 3–6, 9, and 11, respectively, compared to the diabetic control group (Figure 7).
Figure 7 The level of Ch (cholesterol), TG (triglyceride), HDL (high density lipoprotein), LDL (low density lipoprotein) and VLDL (very low density lipoprotein) in serum of hyperglycemic loaded rats. […] Data analyzed by one way ANOVA followed by LSD test and expressed as mean ± SEM from five observations.
2007) dissolved in normal saline (Bodade et al., 2013). The animals were allowed to drink 5% glucose solution overnight to overcome the drug induced hypoglycemia (Gandhi and Sasikumar, 2012; Pareek etal., 2009). Blood samples were taken 48 h after injection of alloxan to ensure that diabetes has been induced (Vijayan et al., 2013), and fasting plasma glucose level of rats was determined using glucose strips. Rats with plasma glucose concentration N 300 mg/dl (Gadadare et al., 2015) were considered diabetic and included in […]
The blood samples (0.5 ml) were withdrawn from the retro-orbital plexus of each rat under mild anesthesia using a glass capillary tube after fasting for 6 h. Blood samples were centrifuged at 3000 rpm for 15 min. The serum was kept at −80 °C until analyzed. Speciﬁc reagent kits were used to determine levels of serum triglyceride (TG), serum cholesterol (CH), serum low density lipoproteins (LDL), serum high density lipoproteins (HDL) for assessing the lipid proﬁle.
as §1

[4] = DPPH radical scavenging activity; details: concentrations 0.16-1000 µg/mL
Protocol: The assay of 2,2-Diphenyl-1-picrylhydrazyl radical (DPPH) was performed according to the method at.
We examined the antioxidant activity of the (3–6, 9, and 11) hybrids using the stable DPPH assay. The antioxidant result was represented as IC50 (the concentration is essential for 50% reduction in the power of H-donation or radical scavenging). […] The increasing scavenging activity may be due to the stabilization of the lone pair in the conjugated system through the presence of the terminal carbonyl and thiazolidinone groups.

[5] = 250 μ/Kg, 15th and 30th treatments
[6] = 100 μ/Kg, in comparison with DC, 4th and 15th time durations
[7] = 250 μ/Kg, 30th time duration of treatment

Row | Compound | pIC50 (α-amylase) | BGL [1, 5] | Mortilaty [2] | VLDL level ([3]; 4th, 15th and 30th days) | CH level ([3]; 30th day, 50 μ/Kg) | serum CH level decrease ([3]; 50 μ/Kg) | BGL ([1]; 50 μ/Kg, 4th, 15th and 30th) | BGL [1, 6] | VLDL level of serum ([3]; all experimental periods, compared to the normal rats) | LDL value ([3]; 2nd and 15th days) | VLDL ([3]; 2nd to 15th days) | VLDL level ([3]; 30th day) | LDL value ([3]; 30th day) | IC50 DPPH radical scavenging [4] | reduction percentage of blood glucose level [1] | glucose level [1, 7] | TG level ([3]; 30th day, versus normal level, 50 μ/Kg) | BGL ([1]; 50 μ/Kg, p < 0.05, all experiment periods compared to DC group) | glucose level ([1]; 100 μ/Kg, in comparison with DC, 4th, 15th and 30th time durations) | VLDL ([3]; 4th and 30th day)
1 | CC(=O)CN1C(=O)SC(=Cc2ccc3c(c2)OCO3)C1=O [Compound 5, 5-(benzo[d][1,3]dioxol-5-ylmethylene)-3-(2-oxopropyl) thiazolidine-2,4-dione] | 4.23 | promising decreases in BGL | 0% | regulated the VLDL level to the normal level | lower CH level than the normal animals | 40% | – | – | – | – | – | – | – | – | – | – | – | – | – | –
2 | O=C(CCl)N1C(=O)S/C(=C/c2ccc3c(c2)OCO3)C1=O [Compound 4] | 3.79 | – | 0% | – | – | 32% | moderate reduction in BGL | moderate decreases in BGL | below the normal value | – | – | – | – | – | – | – | – | – | – | –
3 | O=C1NC(=O)/C(=C\c2ccc3c(c2)OCO3)S1 [Compound 3] | 3.76 | – | 0% | – | lower CH level than the normal animals | 40% | – | – | – | can regulate the LDL value to the normal value | failed to reach to control value for VLDL | almost reached to the normal VLDL level | failed to do so | – | – | – | – | – | – | –
4 | Cc1nnc(NC(=S)SCC(=O)N2C(=O)S/C(=C/c3ccc4c(c3)OCO4)C2=O)s1 [Compound 9, 2-(5-(Benzo[d][1,3]dioxol-5-ylmethylene)-2,4-dioxothiazolidin-3-yl)-2-oxoethyl (5-Methyl-1,3,4-thiadiazol-2-yl) Carbamodithioate] | – | – | – | regulated the VLDL level to the normal level | lower CH level than the normal animals | 52% | moderate reduction in BGL | moderate decreases in BGL | – | – | – | – | – | – | – | – | – | – | – | –
5 | O=C(O)CN1C(=O)SC(=Cc2ccc3c(c2)OCO3)C1=O [Compound 6, 2-(5-(benzo[d][1,3]dioxol-5-ylmethylene)-2,4-dioxothiazolidin-3-yl)acetic acid] | 4.48 | – | 0% | regulated the VLDL level to the normal level | lower CH level than the normal animals | 48% | moderate reduction in BGL | moderate decreases in BGL | – | – | – | – | – | 10.78 µg/mL (≈ 35.1 µM) | 69.55% | significant reduction in glucose level | decreased to the normal level | – | – | –
6 | O=C1CSC(=O)N1CC(=O)N1C(=O)SC(=Cc2ccc3c(c2)OCO3)C1=O [Compound 11, 5-(Benzo[d][1,3]dioxol-5-ylmethylene)-3-(2-(2,4-dioxothiazolidin-3-yl)acetyl) Thiazolidine-2,4-dione] | 4.31 | promising decreases in BGL | – | – | lower CH level than the normal animals | 43% | – | – | – | – | – | – | – | 11.16 µg/mL (≈ 27.5 µM) | 66.95% | significant reduction in glucose level | – | promising reduction in BGL | significant reduction in glucose level | regulated only the VLDL of infected rats to normal values
